Series [1] deals with Human bone marrow mononuclear cells. Put plainly: Human bone marrow assay (CFU-GM colony inhibition). It is filed as cell-based. The protocol: Methocult™ GF (Cat No: H4534, Poietics, Biowhittakar, USA) medium comprising Methycellulose in Iscove's MDM, Fetal bovine serum, Bovine serum albumin, 2-Mercaptoethanol, L-Glutamine, rhStem cell factor, rhGM-CSF and rhIL-3 was used for the assay. Human bone marrow mononuclear cells (Cat No. 2M-125C, Poietics, Biowhittakar, USA) were mixed with Methocult™ GF and the cell density was adjusted to 3×10^5 cells/ml. From this preparation, 500 μL aliquots were made and 2.5 μL of 20× drug solution or vehicle was added to each aliquot and mixed thoroughly. 100 μL of clonogenic medium was plated into each well and the plates were allowed to gel at 4° C. for 15 minutes. Plates were incubated at 37° C. in a fully humidified atmosphere of 5% CO2 in an incubator for 14 days. CFU-GM colonies were counted under an inverted microscope as aggregates of 50 cells or more. The percentage colony inhibition was calculated using the following formula: 100−[(number of colonies in drug treated wells/Number of colonies in control wells)×100].

A further series deals with T1, Topoisomerase I (Homo sapiens, UniProt P11387).
T1 construct: purchased Topogen, Inc., Port Orange, Fla
T1 sequence (P11387 1-765): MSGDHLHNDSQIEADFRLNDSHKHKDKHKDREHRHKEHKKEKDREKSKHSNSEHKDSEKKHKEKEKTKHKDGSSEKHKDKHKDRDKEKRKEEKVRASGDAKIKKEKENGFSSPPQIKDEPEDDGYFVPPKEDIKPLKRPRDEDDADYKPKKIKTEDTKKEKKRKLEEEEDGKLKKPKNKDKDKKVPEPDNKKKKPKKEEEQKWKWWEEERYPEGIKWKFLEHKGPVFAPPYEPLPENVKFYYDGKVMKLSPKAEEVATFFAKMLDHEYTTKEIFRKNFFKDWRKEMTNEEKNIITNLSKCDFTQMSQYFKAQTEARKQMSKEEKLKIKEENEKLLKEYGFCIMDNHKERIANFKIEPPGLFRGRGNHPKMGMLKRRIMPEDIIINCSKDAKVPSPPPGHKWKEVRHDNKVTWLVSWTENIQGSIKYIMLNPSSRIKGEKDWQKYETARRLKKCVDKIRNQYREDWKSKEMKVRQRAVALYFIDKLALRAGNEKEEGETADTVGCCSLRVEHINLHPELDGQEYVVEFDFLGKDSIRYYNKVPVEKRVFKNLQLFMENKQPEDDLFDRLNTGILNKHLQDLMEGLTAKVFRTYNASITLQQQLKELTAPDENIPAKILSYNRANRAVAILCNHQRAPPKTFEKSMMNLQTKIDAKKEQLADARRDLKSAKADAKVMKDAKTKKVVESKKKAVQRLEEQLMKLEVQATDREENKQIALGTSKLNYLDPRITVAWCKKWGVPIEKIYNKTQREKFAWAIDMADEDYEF
The series can be described thus: Topoisomerase I assay (TopoGEN Topo I Drug Screening Kit). It counts as biochemical. The source says:
Topoisomerase I introduces transient nicks in DNA at specific sites. Detection of these transient DNA nicks requires trapping the enzyme on DNA in a nicked intermediate complex using protein denaturants. The resulting covalent DNA/topo I complexes contain nicked open circular DNA which can be detected by agarose gel electrophoresis (with ethidium bromide). Trapping nicked intermediates is relatively inefficient, however, inhibitors, such as the natural product camptothecin, stabilize the intermediate and lead to an increase in the nicked DNA product. This forms the basis for a mechanistic drug screen designed to allow detection of agents that affect topoisomerase I by stabilizing the cleaved intermediate complex.
The TopoGEN® Topo I Drug Screening Kit (Topogen, Inc., Port Orange, Fla.) is designed to allow the investigator to quickly identify novel inhibitors of topoisomerase I. The kit allows the detection of novel compounds that either stabilize the nicked intermediate or otherwise inhibit catalytic activity of topoisomerase I.
The above reaction mixture is incubated at 37° C. for 30 minutes. The reaction is terminated by adding 2 μl of 10% SDS and the mixture is vortexed rapidly (SDS should be added while at 37° C. as cooling the tubes might reseal the nicked DNA). 10× Dye, about 2.5 μl per tube, is added and equal volumes of a mixture of chloroform and isoamyl alcohol (24:1) is added and centrifuged at 13000 rpm for 10 minutes. Samples are loaded on a 1% agarose gel and electrophoresed for 1 hour at 80 volts. The gel was viewed on UV transilluminator and the densitometric estimation of the bands was calculated.
The density of the DNA bands of both super coiled and relaxed forms of DNA was measured using the densitometer. The band intensity of treated (with single concentration of the test drug) and without the drug (i.e., the Control) were recorded. The percentage of relaxed form DNA compared to the supercoiled DNA was calculated for all the lanes including treated and control.
% inhibition of Topoisomerase activity was calculated as: =(100−(100×(1/% inhibition in Control)×% inhibition in treated))

The nature of series [2]: in vivo. Particulars: Swiss Albino, mouse, po, 5 mg/kg. Details: species or system Swiss Albino mice. On the procedure: 5(S)-CPT (2.5 mg/kg) and 5(RS)-CPT (5 mg/kg, including 2.5 mg/kg of 5(S)-CPT in the mixture) were been administered to Swiss Albino mice to evaluate oral pharmacokinetics.
(§1) Swiss Albino mice, 3-6 weeks of age and weighing between 28-34 g were used in the study. Twelve mice were used per study. The oral pharmacokinetics test was carried out in overnight fasted condition and intravenous pharmacokinetics was carried out in fed condition. The test drugs were administered as a solution by oral gavage or lateral tail vein injection. Sparse blood samples of about 250 microliters were collected from retro-orbital plexus at designated time points into microcentrifuge tubes containing 25 microliters of EDTA. Plasma was separated by centrifuging blood at 12,800 rpm for 2 min and refrigerated until analysis.
(§2) Samples were tested for the presence of the test drug as follows. An aliquot of 100 μl plasma (stored at 8° C.) was precipitated with 400 μl of cold methanol for the estimation of total (lactone+carboxylate). […] Concentrations of the test drug were calculated from the linearity plotted by spiking known concentrations of the test drug in blank rat plasma. The pharmacokinetics of the test drug was calculated using non-compartmental analysis.

Series [3] can be described thus: in vivo. The arrangement: species or system male Wistar rats. Particulars: male, Wistar, rat, po, 5 mg/kg. The protocol: 5(S)-CPT (2.5 mg/kg) and 5(RS)-CPT (5 mg/kg, including 2.5 mg/kg of 5(S)-CPT in the mixture) were been administered to male Wistar Rats to evaluate oral pharmacokinetics.
as §1, with “Male Wistar rats, 6-8” for “Swiss Albino mice, 3-6”, “205 and 218” for “28-34”, “divided into groups of four rats.” for “used in the study. Twelve mice were used per study.”
as §2

Series [4] concerns Saos-2 cells over expressing non-functional BCRP mut#10. It is filed as cell-based, human. The protocol: (§3) The anticancer effect of 5(S)-CPT & 5(R)-CPT were evaluated versus the diastereoisomeric mixture 5(RS)-CPT on Saos-2 cells over expressing functional BCRP#4 and non-functional BCRP mut#10. The human osteosarcoma cell line, Saos-2, was obtained from ATCC (American Type Culture Collection, Cat#HTB-85, Manassas, Va.) and were maintained in DMEM containing 10% fetal bovine serum, 1% penicillin/streptomycin, and 2 mM glutamine. Saos-2 cells were transfected with either BCRP#4 to over express functional BCRP or BCRP#10 to over express non-functional BCRP transporter. The cells were plated in 96-well plates at a density of 1000 cells per each well in a 0.1 ml of medium and allowed to attach overnight. The next morning the medium was gently aspirated and serial dilutions of the compounds to be tested were added. The cells were incubated at 37° C. in a 5% CO2 incubator. After 6 days of exposure to the test drugs, 10 μl of Alamar blue was added aseptically to each well and the plates were returned to the incubator for 6 hr. The amount of the fluorescent dye produced was measured on a Cytofluor 2300(Millipore, Bedford, Mass.) using an excitation wavelength of 530 nm and emission wavelength of 590 nm. The relative fluorescence units obtained were used to calculate the percentage growth at each concentration in relation to the untreated control values. […]

The subject of series [5] is Saos-2 cells over expressing functional BCRP#4. It is filed as cell-based, human. The protocol: as §3
Series [6] relates to NCI-H460 (human small cell lung carcinoma) xenografts. Put plainly: NCI-H460 xenograft study in nude mice. It is filed as in vivo. The note with it: oral, (d×5)2 schedule. The protocol: Percentage tumor growth inhibition was calculated using the formula: Percentage Tumor growth inhibition=100−% T/C.
The other parameter observed was mortality.

Series [7] is classed as physicochemical. The note with it: accelerated stability 40° C.±2° C./75% RH±5% RH for 6 months. The protocol:
The water content of crystalline 5(S)-CPT was measured by Mettler® DL 31 KF apparatus by using Karl Fischer reagent. A weighed quantity of crystalline 5(S)-CPT was transferred into a titration vessel of a Karl Fischer apparatus containing about 40 ml of previously neutralized methanol. The sample was dissolved with stirring, and was titrated with Karl Fisher Reagent to the end point under vigorous stirring. Water content was calculated as: […]
The product is stable in 6 months accelerated conditions.
In one embodiment, 5(S)-CPT is isolated in crystalline form, which exists substantially free from water (i.e., essentially anhydrous). The term “substantially free from water” means the presence of less than about 1.0% water w/w and even specifically less than about 0.5% water w/w as measured by Karl Fisher analysis or TGA. […] The product is stable for 6 months under accelerated stability testing conditions of 40° C.±2° C./75% RH±5% RH and stable for 24 months under long term stability testing conditions at 30° C.±2° C./65%±5% RH.

Like-named read-outs stand apart in the source and are kept apart here.

A word on the IC50: it is the concentration that gives 50% inhibition. Usually AUC stands for the area under the concentration-time curve, a measure of exposure.

With `CC[C@@]1(O)C(=O)OCc2c1cc1n(c2=O)[C@H](OCCO)c2cc3ccccc3nc2-1` [5(R)-CPT, 5(R)-(2′-hydroxyethoxy)-20(S)-camptothecin, reference compound], in series [1] (human, 14 days), the “GI90 for human bone marrow cells in vitro” value is 0.89 µM and the “Safety Margin (GI90/GI50)” value turned out to be 0.06. Further, on Topoisomerase I, the IC50 was determined as 22 µM.

Take `CC[C@@]1(O)C(=O)OCc2c1cc1n(c2=O)[C@@H](OCCO)c2cc3ccccc3nc2-1` [5(S)-CPT, 5(S)-(2′-hydroxyethoxy)-20(S)-camptothecin]: in series [1] (human, 14 days), the “GI90 for human bone marrow cells in vitro” value was found to be 0.69 µM. In addition, the “Safety Margin (GI90/GI50)” value in series [1] (ratio of GI90 for human cell toxicity to GI50 for anticancer activity) is reported as 0.14. In addition, the figures for the AUC in the series “in vivo [2]” and in “in vivo [3]” were 5.18 µM·h and 5.76 µM·h, respectively. Moreover, on Topoisomerase I, the concentration for half-maximal inhibition (IC50) is 1.06 µM. The “fold more active than 5(R)-CPT in inhibiting topoisomerase I” value on Topoisomerase I (versus 5(R)-CPT) was “about 21 fold”. For the same compound, the “times more active than 5(RS)-CPT in inhibiting topoisomerase I” value on Topoisomerase I (versus 5(RS)-CPT) was “about 12 times”. In addition, the entries for the “fold more cytotoxic than 5(R)-CPT” value in series [4] and in series [5] were roughly 6 fold and greater than 2.5 fold, respectively. Further, the Mortality in series [6] (2 mg/kg) and in series [6] (4 mg/kg) was 0/5 throughout. Moreover, the “change in water content (Karl Fisher analysis)” value is listed as “no appreciable change” in series [7] and “No change” in series [7] (listed as crystalline 5(S)-CPT). Moreover, the hygroscopicity result in series [7] is “non-hygroscopic”.

Regarding `CC[C@@]1(O)C(=O)OCc2c1cc1n(c2=O)C(OCCO)c2cc3ccccc3nc2-1` (mixture of isomers) [5(RS)-CPT, 5(RS)-(2′-hydroxyethoxy)-20(S)-camptothecin, reference compound], the AUC in “in vivo [2]” is 5.2 µM·h; in the series “in vivo [3]”, 5.08 µM·h. In addition, on Topoisomerase I, the midpoint of inhibition, the IC50, lay at 12.5 µM. Moreover, the “% Tumor Growth Inhibition” value in series [6] (2 mg/kg) amounted to 60%. The Mortality in series [6] (2 mg/kg) and in series [6] (4 mg/kg) was 0/5 each time.
